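96-well plates; 48 h exposure; 5 concentrations. Endpoints by linear interpolation between flanking doses. Not reached: highest tested concentration assigned. TGI: total growth inhibition.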
Key:
Assay in all cases: inhibition of tumour cell growth, NCI panel, 48 h
[1] = test system: HL-60(TB) leukemia
[2] = test system: HCT-116 colon
[3] = test system: MOLT-4 leukemia
[4] = test system: RXF 393 renal
[5] = test system: HOP-62 NSCLC
[6] = test system: OVCAR-3 ovarian
[7] = test system: U251 CNS
[8] = test system: SNB-75 CNS
[9] = test system: KM12 colon
[10] = test system: SW-620 colon
[11] = test system: COLO 205 colon
[12] = test system: HOP-18 NSCLC
[13] = test system: UO-31 renal
[14] = test system: A549 NSCLC
[15] = test system: KM20L2 colon
[16] = test system: DMS 114 small cell lung
[17] = test system: TK-10 renal
[18] = test system: LXFL 529 NSCLC
[19] = test system: DMS 273 small cell lung
[20] = test system: OVCAR-8 ovarian
[21] = test system: CCRF-CEM leukemia
[22] = test system: SK-OV-3 ovarian
[23] = test system: SK-MEL-2 melanoma
[24] = test system: SK-MEL-28 melanoma
[25] = test system: NCI-H460 lung
[26] = test system: SF-295 CNS
[27] = test system: RPMI-8226 leukemia
[28] = test system: SN12C renal
[29] = test system: HCT-15 colon
[30] = test system: IGROV1 ovarian
[31] = test system: UACC-62 melanoma
[32] = test system: M14 melanoma
[33] = test system: HCC-2998 colon
[34] = test system: ACHN renal
[35] = test system: UACC-257 melanoma
[36] = test system: SK-MEL-5 melanoma
[37] = test system: XF 498 CNS
[38] = test system: OVCAR-4 ovarian
[39] = test system: OVCAR-5 ovarian
[40] = test system: SF-268 CNS
[41] = test system: SR leukemia
[42] = test system: MALME-3M melanoma
[43] = test system: SNB-78 CNS
[44] = test system: M19-MEL melanoma
[45] = test system: K-562 leukemia
[46] = test system: SF-539 CNS
[47] = test system: RXF-631 renal
[48] = test system: HT29 colon
[49] = test system: 786-0 renal
[50] = test system: SNB-19 CNS
[51] = test system: NCI-H522 lung
[52] = test system: EKVX NSCLC
[53] = test system: CAKI-1 renal
[54] = test system: NCI-H23 lung
[55] = test system: HOP-92 NSCLC
[56] = test system: DLD-1 colon
[57] = test system: LOX IMVI melanoma

With `O=c1oc2c3ccc4ccccc4c3n(CCN3CCCCC3)c2c2ccccc12` as the molecule, how does the TGI [1] read?
The TGI was greater than 100 µM.

And the TGI [2]?
The TGI was greater than 100 µM.

What about the TGI [3] of the same molecule?
The TGI was greater than 100 µM.

What about the TGI [4] of the same molecule?
The TGI was 29.3 µM.

What about the TGI [5] of the same molecule?
Its TGI is 58.9 µM.

What about the TGI [6] of the same molecule?
Its TGI is 54.1 µM.

What about the TGI [7] of the same molecule?
Its TGI is 65 µM.

What about the TGI [8] of the same molecule?
Its TGI is 19.6 µM.

And the TGI [9]?
Its TGI is greater than 100 µM.

What about the TGI [10] of the same molecule?
The TGI was greater than 100 µM.

And the TGI [11]?
The TGI was greater than 100 µM.

What about the TGI [12] of the same molecule?
Its TGI is greater than 100 µM.

And the TGI [13]?
Its TGI is greater than 100 µM.

And the TGI [14]?
The TGI was greater than 100 µM.

And the TGI [15]?
Its TGI is greater than 100 µM.

And the TGI [16]?
The TGI was greater than 100 µM.

What about the TGI [17] of the same molecule?
The TGI was greater than 100 µM.

What about the TGI [18] of the same molecule?
The TGI was greater than 100 µM.

And the TGI [19]?
The TGI was greater than 100 µM.

And the TGI [20]?
Its TGI is greater than 67.3 µM.

And the TGI [21]?
The TGI was greater than 91.7 µM.

What about the TGI [22] of the same molecule?
The TGI was greater than 78.5 µM.

And the TGI [23]?
Its TGI is 65.6 µM.

And the TGI [24]?
The TGI was greater than 100 µM.

What about the TGI [25] of the same molecule?
Its TGI is greater than 43.9 µM.

What about the TGI [26] of the same molecule?
Its TGI is 39.3 µM.

What about the TGI [27] of the same molecule?
Its TGI is greater than 100 µM.

And the TGI [28]?
The TGI was greater than 100 µM.

And the TGI [29]?
The TGI was greater than 100 µM.

And the TGI [30]?
The TGI was greater than 100 µM.

What about the TGI [31] of the same molecule?
Its TGI is greater than 78.8 µM.

What about the TGI [32] of the same molecule?
Its TGI is greater than 100 µM.

And the TGI [33]?
Its TGI is greater than 100 µM.

And the TGI [34]?
The TGI was greater than 100 µM.

And the TGI [35]?
Its TGI is greater than 100 µM.

What about the TGI [36] of the same molecule?
The TGI was greater than 100 µM.

What about the TGI [37] of the same molecule?
The TGI was 42.9 µM.

And the TGI [38]?
Its TGI is greater than 62 µM.

What about the TGI [39] of the same molecule?
The TGI was greater than 100 µM.

What about the TGI [40] of the same molecule?
Its TGI is greater than 68.7 µM.

And the TGI [41]?
The TGI was greater than 100 µM.

What about the TGI [42] of the same molecule?
Its TGI is greater than 88.6 µM.

And the TGI [43]?
The TGI was greater than 31.6 µM.

What about the TGI [44] of the same molecule?
Its TGI is greater than 100 µM.

And the TGI [45]?
Its TGI is greater than 100 µM.

And the TGI [46]?
The TGI was greater than 49.4 µM.

And the TGI [47]?
Its TGI is greater than 100 µM.

What about the TGI [48] of the same molecule?
Its TGI is 53.4 µM.

What about the TGI [49] of the same molecule?
Its TGI is 27.9 µM.

What about the TGI [50] of the same molecule?
Its TGI is greater than 100 µM.

What about the TGI [51] of the same molecule?
Its TGI is greater than 100 µM.

What about the TGI [52] of the same molecule?
Its TGI is greater than 100 µM.

And the TGI [53]?
The TGI was greater than 100 µM.

And the TGI [54]?
Its TGI is greater than 69.5 µM.

What about the TGI [55] of the same molecule?
Its TGI is greater than 100 µM.

And the TGI [56]?
The TGI was greater than 100 µM.

And the TGI [57]?
Its TGI is greater than 100 µM.
